In the assay the test system is rat uterine decidualization. In words: Rat decidualization assay. Type of assay: in vivo. Conditions: decidual response; for Estimated average EC50 (mg/kg s.c.): average over dose-response curves; for Estimated EC50 (mg/kg s.c.), individual studies: ovariectomized rats, uterine wet weight. As to the method: 2. Rat Decidualization Assay
b. Animals (RACUC protocol #5002)
The animals are treated once daily for seven days.
Uteri are removed and trimmed of fat.
Body weight: Mean total animal body weight (default-kg)
Decidual response: [(D−C)/C]×100%

The structures appear in SMILES notation. Values joined by “and” are separate entries in the source; they are usually repeats but may differ in a detail not shown here. Equal entries are not always repeated.

The source of these data is patent US6423699B1, “Combination therapies using benzimidazolones” (American Home Products Corporation, priority 1999, dated 2002).

`C#C[C@]1(O)CC[C@H]2[C@@H]3CCC4=CC(=O)CC[C@@H]4[C@H]3C(=C)C[C@@]21CC` [3-Ketodesogestrel]: the “Estimated average EC50 (mg/kg s.c.)” value was 0.10 mg/kg s.c; the “Estimated EC50 (mg/kg s.c.), individual studies” value (“Estimated EC50” below) is 0.10 mg/kg s.c. and 0.06 mg/kg s.c. and 0.11 mg/kg s.c. As for `CC(=O)[C@H]1CC[C@H]2[C@@H]3CCC4=CC(=O)CC[C@]4(C)[C@H]3CC[C@]12C` [Progesterone], the “Estimated average EC50 (mg/kg s.c.)” value is recorded as 5.62 mg/kg s.c and the “Estimated EC50” value is reported as 5.50 mg/kg s.c. Regarding `C#C[C@]1(O)CC[C@H]2[C@@H]3CCC4=CC(=O)CC[C@@H]4[C@H]3CC[C@@]21CC` [Levonorgestrel], the “Estimated average EC50 (mg/kg s.c.)” value was 0.10 mg/kg s.c; the “Estimated EC50” value was 0.08 mg/kg s.c. and 0.12 mg/kg s.c. and 0.09 mg/kg s.c. (2×). In the case of `CC(=O)O[C@]1(C(C)=O)CC[C@H]2[C@@H]3C[C@H](C)C4=CC(=O)CC[C@]4(C)[C@H]3CC[C@@]21C` [MPA, medroxyprogesterone acetate], the “Estimated EC50” value is 0.42 mg/kg s.c. and 0.39 mg/kg s.c. (2×).
